# Several values for one entry are separate records, joined by “and”; a condition that tells them apart may be missing. Equal entries are not always repeated.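 96-well plates; 48 h exposure; 5 concentrations. Endpoints by linear interpolation between flanking doses. Not reached: highest tested concentration assigned. GI50 = concentration required for 50% inhibition of growth. The concentration for full growth arrest is given as TGI.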
# Experiments:
# Test in all cases: DTP human tumour cell line panel, 48 h
# UACC-62 melanoma = tested on: UACC-62 melanoma
# DU-145 prostate = tested on: DU-145 prostate
# CAKI-1 renal = tested on: CAKI-1 renal
# NCI-H522 lung = tested on: NCI-H522 lung
# NCI-H460 lung = tested on: NCI-H460 lung
# SNB-19 CNS = tested on: SNB-19 CNS
# KM12 colon = tested on: KM12 colon
# MCF7 breast = tested on: MCF7 breast
# HS 578T breast = tested on: HS 578T breast
# SK-MEL-2 melanoma = tested on: SK-MEL-2 melanoma
# BT-549 breast = tested on: BT-549 breast
# OVCAR-8 ovarian = tested on: OVCAR-8 ovarian
# HCT-116 colon = tested on: HCT-116 colon
# U251 CNS = tested on: U251 CNS
# SK-OV-3 ovarian = tested on: SK-OV-3 ovarian
# IGROV1 ovarian = tested on: IGROV1 ovarian
# LOX IMVI melanoma = tested on: LOX IMVI melanoma
# NCI-H23 lung = tested on: NCI-H23 lung
# SW-620 colon = tested on: SW-620 colon
# HOP-62 NSCLC = tested on: HOP-62 NSCLC
# PC-3 prostate = tested on: PC-3 prostate
# HOP-92 NSCLC = tested on: HOP-92 NSCLC
# ACHN renal = tested on: ACHN renal
# SF-268 CNS = tested on: SF-268 CNS
# SK-MEL-5 melanoma = tested on: SK-MEL-5 melanoma
# SF-295 CNS = tested on: SF-295 CNS
# OVCAR-4 ovarian = tested on: OVCAR-4 ovarian
# A549 NSCLC = tested on: A549 NSCLC
# MDA-MB-231 breast = tested on: MDA-MB-231 breast
# CCRF-CEM leukemia = tested on: CCRF-CEM leukemia
# COLO 205 colon = tested on: COLO 205 colon
# 786-0 renal = tested on: 786-0 renal
# UO-31 renal = tested on: UO-31 renal
# NCI-H226 lung = tested on: NCI-H226 lung
# A498 renal = tested on: A498 renal
# RXF 393 renal = tested on: RXF 393 renal
# UACC-257 melanoma = tested on: UACC-257 melanoma
# HCT-15 colon = tested on: HCT-15 colon
# OVCAR-3 ovarian = tested on: OVCAR-3 ovarian
# SN12C renal = tested on: SN12C renal
# OVCAR-5 ovarian = tested on: OVCAR-5 ovarian
# SF-539 CNS = tested on: SF-539 CNS
# RPMI-8226 leukemia = tested on: RPMI-8226 leukemia
# EKVX NSCLC = tested on: EKVX NSCLC
# HCC-2998 colon = tested on: HCC-2998 colon
# NCI/ADR-RES ovarian = tested on: NCI/ADR-RES ovarian
# HL-60(TB) leukemia = tested on: HL-60(TB) leukemia
# K-562 leukemia = tested on: K-562 leukemia
# MALME-3M melanoma = tested on: MALME-3M melanoma
# SK-MEL-28 melanoma = tested on: SK-MEL-28 melanoma
# MOLT-4 leukemia = tested on: MOLT-4 leukemia
# HT29 colon = tested on: HT29 colon
# TK-10 renal = tested on: TK-10 renal
# SR leukemia = tested on: SR leukemia
# MDA-MB-435 = tested on: MDA-MB-435
# M14 melanoma = tested on: M14 melanoma
# T-47D breast = tested on: T-47D breast
structure (smiles),measurement,setting,value
COc1ccc(-c2cc(=O)oc3ccc(Cl)cc23)cc1F,GI50,UACC-62 melanoma,37.7 nM and 40.6 nM
same,TGI,UACC-62 melanoma,> 100 µM
same,GI50,DU-145 prostate,255 nM and 261 nM
same,TGI,DU-145 prostate,4.16 µM and 27.3 µM
same,TGI,CAKI-1 renal,> 100 µM
same,GI50,NCI-H522 lung,34.9 nM and 21.8 nM
same,GI50,NCI-H460 lung,167 nM and 49.9 nM
same,TGI,NCI-H460 lung,21.8 µM
same,GI50,SNB-19 CNS,350 nM and 74.4 nM
same,TGI,SNB-19 CNS,> 100 µM
same,GI50,KM12 colon,71.2 nM and 52.4 nM
same,TGI,KM12 colon,11 µM
same,GI50,MCF7 breast,78.5 nM and 46.8 nM
same,TGI,MCF7 breast,18.6 µM
same,GI50,HS 578T breast,181 nM and 75.4 nM
same,TGI,HS 578T breast,68.9 µM
same,GI50,SK-MEL-2 melanoma,212 nM and 38.5 nM
same,TGI,SK-MEL-2 melanoma,2680 nM
same,GI50,BT-549 breast,303 nM and 66.5 nM
same,TGI,BT-549 breast,6.62 µM
same,GI50,OVCAR-8 ovarian,490 nM and 327 nM
same,TGI,OVCAR-8 ovarian,> 100 µM
same,GI50,HCT-116 colon,91.3 nM and 44.7 nM
same,TGI,HCT-116 colon,3.63 µM and 10.7 µM
same,GI50,U251 CNS,331 nM and 51.9 nM
same,TGI,U251 CNS,12.6 µM
same,GI50,SK-OV-3 ovarian,384 nM and 209 nM
same,TGI,SK-OV-3 ovarian,> 100 µM
same,GI50,IGROV1 ovarian,1160 nM and 683 nM
same,TGI,IGROV1 ovarian,> 100 µM
same,GI50,LOX IMVI melanoma,186 nM and 69.5 nM
same,TGI,LOX IMVI melanoma,> 100 µM
same,GI50,NCI-H23 lung,302 nM and 413 nM
same,TGI,NCI-H23 lung,96 µM
same,GI50,SW-620 colon,53 nM and 43.1 nM
same,TGI,SW-620 colon,> 100 µM
same,GI50,HOP-62 NSCLC,208 nM and 188 nM
same,TGI,HOP-62 NSCLC,27.3 µM
same,GI50,PC-3 prostate,274 nM and 79.7 nM
same,TGI,PC-3 prostate,> 100 µM
same,TGI,HOP-92 NSCLC,7.94 µM
same,TGI,ACHN renal,> 100 µM
same,GI50,SF-268 CNS,616 nM and 302 nM
same,TGI,SF-268 CNS,> 100 µM
same,GI50,SK-MEL-5 melanoma,140 nM and 71.7 nM
same,TGI,SK-MEL-5 melanoma,835 nM and 2350 nM
same,GI50,SF-295 CNS,84.5 nM and 36.7 nM
same,TGI,SF-295 CNS,14.2 µM
same,GI50,OVCAR-4 ovarian,1.03 µM and 5.59 µM
same,TGI,OVCAR-4 ovarian,> 100 µM
same,GI50,A549 NSCLC,268 nM and 105 nM
same,TGI,A549 NSCLC,> 100 µM
same,TGI,MDA-MB-231 breast,> 100 µM
same,GI50,CCRF-CEM leukemia,222 nM and 59.9 nM
same,TGI,CCRF-CEM leukemia,> 100 µM
same,GI50,COLO 205 colon,146 nM and 85.3 nM
same,TGI,COLO 205 colon,1090 nM and 896 nM
same,GI50,786-0 renal,366 nM and 87.7 nM
same,TGI,786-0 renal,> 100 µM
same,GI50,UO-31 renal,755 nM and 1200 nM
same,TGI,UO-31 renal,> 100 µM
same,GI50,NCI-H226 lung,705 nM and 3940 nM
same,TGI,NCI-H226 lung,> 100 µM
same,GI50,A498 renal,103 nM and 47.1 nM
same,TGI,A498 renal,790 nM and 5170 nM
same,GI50,RXF 393 renal,141 nM and 233 nM
same,GI50,UACC-257 melanoma,23.2 µM
same,TGI,UACC-257 melanoma,> 100 µM
same,GI50,HCT-15 colon,53.7 nM and 46.3 nM
same,TGI,HCT-15 colon,10.4 µM
same,GI50,OVCAR-3 ovarian,50.2 nM and 37.9 nM
same,TGI,OVCAR-3 ovarian,497 nM and 345 nM
same,TGI,SN12C renal,> 100 µM
same,GI50,OVCAR-5 ovarian,633 nM and 1260 nM
same,TGI,OVCAR-5 ovarian,> 100 µM
same,GI50,SF-539 CNS,126 nM and 47.5 nM
same,TGI,SF-539 CNS,733 nM and 479 nM
same,GI50,RPMI-8226 leukemia,297 nM and 106 nM
same,TGI,RPMI-8226 leukemia,> 100 µM
same,GI50,EKVX NSCLC,509 nM and 362 nM
same,TGI,EKVX NSCLC,> 100 µM
same,GI50,HCC-2998 colon,590 nM and 243 nM
same,TGI,HCC-2998 colon,30.2 µM
same,GI50,NCI/ADR-RES ovarian,44.2 nM and 47.8 nM
same,GI50,HL-60(TB) leukemia,129 nM and 33.9 nM
same,TGI,HL-60(TB) leukemia,908 nM and 480 nM
same,GI50,K-562 leukemia,43.5 nM and 40.1 nM
same,GI50,MALME-3M melanoma,59.2 µM
same,TGI,MALME-3M melanoma,> 100 µM
same,GI50,SK-MEL-28 melanoma,1710 nM and 3050 nM
same,TGI,SK-MEL-28 melanoma,> 100 µM
same,GI50,MOLT-4 leukemia,310 nM and 57.1 nM
same,TGI,MOLT-4 leukemia,> 100 µM
same,GI50,HT29 colon,53.8 nM and 39.7 nM
same,TGI,HT29 colon,336 nM
same,GI50,TK-10 renal,435 nM
same,TGI,TK-10 renal,79.6 µM
same,GI50,SR leukemia,42.6 nM
same,GI50,MDA-MB-435,23.3 nM and 20 nM
same,TGI,MDA-MB-435,67.5 nM and 53.1 nM
same,GI50,M14 melanoma,51.9 nM and 42.3 nM
same,TGI,M14 melanoma,> 100 µM
CCOC(=O)/C=C(/N=P(c1ccccc1)(c1ccccc1)c1ccccc1)C(F)(F)F,TGI,NCI-H522 lung,> 100 µM
same,TGI,SK-OV-3 ovarian,> 100 µM
same,TGI,T-47D breast,> 100 µM
same,TGI,UO-31 renal,> 100 µM
same,TGI,HCC-2998 colon,> 100 µM

# — PubChem BioAssay (NCI)
